Experimental data as given in patent publication US20170067014A1, “METHOD FOR GENERATING CELL CONDENSATE FOR SELF-ORGANIZATION” (PUBLIC UNIVERSITY CORPORATION YOKOHAMA CITY UNIVERSITY, priority 2014, published 2017).

test system: condensate formation in cocultures of iPSC-hepatic endoderm cells, HUVECs and MSCs; assay: Inhibitory experiment against cell condensate formation using chemical substances; assay type: cell-based, human; details: addition to the cocultures
Source text: Hepatic endoderm cells derived from human induced pluripotent stem cells (iPSCs), umbilical cord-derived endothelial cells (HUVECs), and mesenchymal stem cells (MSCs) were labeled with distinctive fluorescent markers and cocultured on a solidified matrix gel which was already described. […] To elucidate dynamics of such condensate formation in more detail, the present inventors examined the temporal development of the position of the edge of the cell condensate (square root of cell area) and circularity by image analysis (FIG. 1b).
On each well of a 24-well plate on which PA gel planar substrate was placed or to which Matrigel coating [Matrigel (BD) either in stock solution or as a mixture with medium at 1:1 was poured at 300 μl/well and left to stand in a 37° C., 5% CO2 incubator for 10 min until it solidified] was applied, 2×10^6 cells or more of multiple types in any combination (tissues isolated from embryo or adult, or KO-HepG2, HUVEC, etc.) as mixed with 2×10^5 MSCs were seeded. In order to form small-sized cell condensates, 4×10^3 cells or more of multiple types in any combination (tissues isolated from embryo or adult, or KO-HepG2, HUVEC) were mixed with 5×10^3 or more MSCs and seeded. In either case, the cells were subsequently cultured in a 37° C. incubator for a day. After seeding, chronological observation of cell coculture was performed with a stereomicroscope or a confocal microscope.

| SMILES | effect on condensate formation |
| --- | --- |
| Cc1ccc2c(c1)C(=O)C1(O)CCN(c3ccccc3)C1=N2 (stereo not drawn) [blebbistatin] | completely antagonized |
| c1cc(CN2CCCNCCNCCCNCC2)ccc1CN1CCCNCCNCCCNCC1 [AMD3100] | could not hinder |
| C[C@@H](N)[C@H]1CC[C@H](C(=O)Nc2ccncc2)CC1 [Sample Y-27632] | partially delayed |
